{
  "source": "ChEMBL document CHEMBL5726535",
  "about": "“Use of agonists of formyl peptide receptor 2 for treating ocular inflammatory diseases” (2019)",
  "molecular_target": "T1, N-formyl peptide receptor 2 (Homo sapiens, UniProt P25090)",
  "T1 sequence (P25090 whole entry)": "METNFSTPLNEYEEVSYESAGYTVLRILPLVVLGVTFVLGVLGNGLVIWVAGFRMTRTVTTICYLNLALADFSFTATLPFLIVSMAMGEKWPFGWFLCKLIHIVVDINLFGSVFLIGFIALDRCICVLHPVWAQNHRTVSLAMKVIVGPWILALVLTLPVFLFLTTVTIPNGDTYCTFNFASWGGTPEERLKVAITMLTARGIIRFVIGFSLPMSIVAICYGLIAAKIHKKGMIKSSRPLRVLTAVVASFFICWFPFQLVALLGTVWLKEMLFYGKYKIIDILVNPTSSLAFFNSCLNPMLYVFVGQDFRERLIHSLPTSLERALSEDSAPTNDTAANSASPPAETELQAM",
  "test": "FLIPR: HEK-Gα16 cells stably expressing the human FPR2 receptor was utilized. Cells were plated into 384-well poly-D-lysine coated plates at a density of 18,000 cells per well one day prior to use. The growth media was DMEM medium supplemented with 10% fetal bovine serum (FBS), 1% antibiotic-antimycotic, 50 μg/ml hygromycin, and 400 μg/ml geneticin. On the day of the experiment, the cells were …",
  "description": "FLIPR: HEK-Gα16 cells stably expressing the human FPR2 receptor was utilized. Cells were plated into 384-well poly-D-lysine coated plates at a density of 18,000 cells per well one day prior to use. The growth media was DMEM medium supplemented with 10% fetal bovine serum (FBS), 1% antibiotic-antimycotic, 50 μg/ml hygromycin, and 400 μg/ml geneticin. On the day of the experiment, the cells were washed twice with Hank's Balanced Salt Solution supplemented with 20 mM HEPES (HBSS/hepes buffer). The cells were then dye loaded with 2 μM Fluo-4 diluted in the HBSS/Hepes buffer and incubated at 37° C. for 40 minutes. Extracellular dye was removed by washing the cell plates four times prior to placing the plates in the FLIPR (Fluorometric Imaging Plate Reader, Molecular Devices). Ligands were diluted in HBSS/Hepes buffer and prepared in 384-well microplates.",
  "data": [
    {"smiles": "NC(=O)C1C(C(=O)Nc2ccc(Br)cc2)C2CCC1C21CC1", "note": "(single isomer, unassigned)", "values": [
      {"measurement": "EC50", "result": "< 1", "unit": "nM"}
    ]}
  ]
}
